In US9795595B2, “Methods for treating cancer” (Boston Biomedical, Inc., priority 2014, dated 2017):

Legend:
[1] = test system: Advanced Solid Tumors; assay: Dose escalation study of the Compound of the Invention in adult patients with advanced solid tumors (Phase I); format: in vivo
Description: In this study, the Compound of the Invention was given orally, continuously, in 28-day cycles until disease progression, unacceptable toxicity, or other discontinuation criteria were met.

[2] = test system: cancer stem cell markers; assay: Cancer stem cell markers in biopsied tumor tissue of study patients; format: in vivo, human
Description: Escalating doses from 10 mg to 450 mg once daily were administered to 26 patients. Maximum tolerated dose (MTD) was not reached. […] Of 20 evaluable patients, 11 (55%) had stable disease (SD) with a median time to progression of 16 weeks.
Encouraging signs of anti-tumor activity have been observed in pretreated patients with advanced cancer.

[3] = test system: nuclear NANOG; assay: Needle biopsy tumor samples before and after 28 days treatment, phase I patients: nuclear NANOG staining; format: in vivo, human; conditions: after 28 days treatment, patient with positive NANOG and STK33 staining
Description: (§1) Understanding the clinical relevance of the stemness markers and identifying predictive biomarkers assists clinical development by selecting patients that will most likely to derive clinical benefit from treatment with the Compound of the Invention. In current studies, we studied stemness gene marker in biopsy tumor as well as archival tumor samples from patients. […] Archival tissue from patients receiving the Compound of the Invention was analyzed via immunohistochemistry to determine whether response to the drug was correlated with either NANOG or STK33. […] Importantly, 90.9% of the tumors with STK33 nuclear staining were also positive for nuclear NANOG staining and there was a significant correlation between nuclear STK33 and nuclear NANOG (P<0.0022).

[4] = test system: nuclear STK33; assay: Needle biopsy tumor samples before and after 28 days treatment, phase I patients: nuclear STK33 staining; format: in vivo, human; conditions: after 28 days treatment, patient with positive NANOG and STK33 staining
Description: as §1

CCN(CC)CCNC(=O)c1c(C)[nH]c(/C=C2\C(=O)Nc3ccc(-c4csc(-c5ccccc5)n4)cc32)c1C [Compound of the Invention]
Patients with tumor regression and/or prolonged stable disease (≧16 weeks), percent [1]: 50%
Grade 3 diarrhea, number of subjects ([1]; 450 mg once daily): 2 subjects
Number of Patients with minor regression or SD ≧16 wks. ([1]; Colorectal Cancer, 5 patients evaluable): 3
Number of Patients with minor regression or SD ≧16 wks. ([1]; Gastric/GEJ Adenocarcinoma, 1 patient evaluable): 1
Number of Patients with minor regression or SD ≧16 wks. ([1]; Head & Neck Cancer, 2 patients evaluable): 2
Number of Patients with minor regression or SD ≧16 wks. ([1]; Hepatocellular Carcinoma, 2 patients evaluable): 1
Number of Patients with minor regression or SD ≧16 wks. ([1]; Non-Small Cell Lung Cancer, 1 patient evaluable): 1
Number of Patients with minor regression or SD ≧16 wks. ([1]; Pancreatic Neuroendocrine, 1 patient evaluable): 1
Number of Patients with minor regression or SD ≧16 wks. ([1]; Renal Cell Carcinoma, 1 patient evaluable): 1
Maximum tolerated dose (MTD) ([1]; escalating doses 10 mg to 450 mg once daily, oral, 28-day cycles, 26 patients): not reached
Adverse events ([1]; including grade 1, 2 diarrhea, abdominal cramping, nausea, anorexia): mild GI adverse events
Patients with stable disease (SD), number ([1]; of 20 evaluable patients): 11
Patients with stable disease (SD), percent ([1]; of 20 evaluable patients): 55%
Patients with tumor regression and/or prolonged stable disease (≧16 weeks), number ([1]; of those patients with SD): 10
Recommended Phase II Dose (RP2D) ([1]; once daily, oral): 300 mg
Pharmacokinetic exposure relative to predicted therapeutic level ([1]; oral, once daily): well above the predicted therapeutic level
Plasma concentration versus dose ([1]; oral, once daily): dose-dependent increases in plasma concentration up to 300 mg once daily
Tolerability ([1]; oral, once daily, 10 mg to 450 mg): well tolerated
Overall survival ([1]; patients with high levels of nuclear STK33 in archival tissue, P<0.0097): improved
Median progression free survival (PFS) ([1]; patients with high levels of nuclear STK33 in archival tissue, P<0.0273): improved
Median time to progression ([1]; patients with stable disease): 16 weeks
Inhibition of cancer stem cell markers [2]: inhibition of cancer stem cell markers was observed
Reduction of nuclear NANOG [3]: potent in reducing nuclear NANOG
Reduction of nuclear STK33 [4]: potent in reducing nuclear NANOG and STK33
